Where a SMILES comes first, the peptide text is derived from it.
Columns and labels:
c-RAF(h) = c-RAF(h) (Homo sapiens, UniProt P04049); test: Kinase Profiling Assay; format: biochemical; settings: 100 μM peptide
Outline: (§1)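 MK2 inhibitory peptides were screened for specificity across a commercial panel of 266 human kinases, and each kinase activity measurement was run in duplicate.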

PAK6(h) = PAK6(h) (Homo sapiens, UniProt Q9NQU5); test: Kinase Profiling Assay; format: biochemical; settings: 100 μM peptide
Outline: as §1

CK1γ2(h) = CK1γ2(h) (Homo sapiens, UniProt P78368); test: Kinase Profiling Assay; format: biochemical; settings: 100 μM peptide
Outline: as §1

[1] = system: bleomycin-induced lung fibrosis in C57BL/6 mice; test: Bleomycin mouse model of pulmonary fibrosis, prevention model (dosing day 7 to 21); format: in vivo; settings: for collagen levels in the lung (Masson's blue trichrome), dose response: 25, 50 or 75 μg/kg daily IP, day 7 to 21
Experimental: (§2) A mouse model of pulmonary fibrosis was generated by administering 0.025 U of bleomycin/PBS intratracheally to C57BL/6 mice. […] At 21 day post bleomycin delivery (for prevention model) or 28 post bleomycin delivery (for treatment model), groups of mice were sacrificed with a sodium pentobarbital injection (120 mg/kg) and the chest cavity was opened. The right mainstem bronchus was ligated and the right lung was removed. The trachea was cannulated and the left lung was perfused with 4% formaldehyde at 21 cm H2O pressure. The tissue blocks then were embedded in paraffin, and […] sections were prepared for staining. Sections from each animal were stained with hematoxylin and eosin (H&E) to visualize cells or with Masson's Trichrome staining to highlight collagen deposition. […] Stained sections were mounted onto a labeled glass slide with organic mounting medium.
Briefly, fibrotic loci in the lungs of the mice were induced by delivering intratracheally about 0.025 U of bleomycin (dissolved in PBS) to C57BL/6 mice. […] Briefly, mice were sacrificed with a sodium pentobarbital injection (120 mg/kg) and the chest cavity was opened. The right mainstem bronchus was ligated and the right lung was removed. The trachea was cannulated and the left lung was perfused with 4% formaldehyde at 21 cm H2O pressure. The tissue blocks then were embedded in paraffin, and […] sections were prepared, and stained with hematoxylin and eosin (H&E; for pathological examination) or Masson's Trichrome (for collagen staining)
Next, total collagen levels in the lungs of the bleomycin-injured mice (FIG. 12) were analyzed quantitatively by computing a constant conversion factor (7.5) for collagen from hydroxyproline concentrations (Neuman R. and Logan M, J Biol Chem., 186(2):549-56, 1950, incorporated by reference).
Next, the effect of increasing doses of MK2 peptide inhibitors on collagen deposition was examined in vivo using the bleomycin mouse model of idiopathic pulmonary fibrosis (prevention model). Briefly, C57-BL/6 mice were subjected to bleomycin injury at day 0.

CLK2(h) = CLK2(h) (Homo sapiens, UniProt P49760); test: Kinase Profiling Assay; format: biochemical; settings: 100 μM peptide
Outline: as §1

CK1γ1(h) = CK1γ1(h) (Homo sapiens, UniProt Q9HCP0); test: Kinase Profiling Assay; format: biochemical; settings: 100 μM peptide
Outline: as §1

Plk1(h) = biological target: T1, Plk1(h) (Homo sapiens, UniProt P53350); test: Kinase Profiling Assay; format: biochemical; settings: 100 μM peptide
T1 construct: purchased Millipore (IC50 Profiler Express service)
Outline: as §1

[2] = system: human fetal lung fibroblasts (IMR-90); test: TGF-β1-induced myofibroblast activation in IMR-90 cells, α-SMA immunoblot; format: cell-based; settings: 1 h pre-treatment, TGF-β1 2 ng/ml 48 h
From the text: Cell lysates were immunoblotted against antibodies for α-SMA (a marker for myofibroblast activation) and GAPDH (loading control).

IL-6 = test: Circulating inflammatory cytokines, bleomycin treatment model; format: in vivo, mouse; settings: intraperitoneal or nebulized; 24 hours after final administration
[3] = system: bleomycin-induced lung fibrosis in C57BL/6 mice; test: Bleomycin mouse model of pulmonary fibrosis, treatment model (dosing day 14 to 28); format: in vivo; set-up: collagen deposition (hydroxyproline assay, whole left lung): dose or concentration left out as unconfirmed
Experimental: as §2
The classic bleomycin model, as depicted in FIG. 10, has been used widely in the literature in the pre-fibrotic stage to test efficacy of any intervention. […]
Next, collagen deposition was determined quantitatively by using the standard hydroxyproline assay with whole left lung. Total collagen (soluble and insoluble) deposition was assessed by analyzing hydroxyproline concentrations in murine lungs day 28 post bleomycin injury.

[4] = system: human airway smooth muscle (HASM); test: ISO-induced relaxation of intact airway tissues in muscle bath; settings: 200 μM pre-treatment for 30 min; n=4
Experimental: (A) Representative tracings of force generation. Cumulative contractile responses to CCH (B) and % relaxation to ISO doses (C). n=4; p<0.05. Inset is an immunoblot showing MK2 phosphorylation level. HASM was hung in the muscle bath and frozen. MK2 phosphorylation was determined by SDS PAGE and immunoblotting.

splenic T cells = test: Autologous mixed lymphocyte reaction of splenic T cells from treated bleomycin mice; format: in vivo, mouse; settings: day 7 to 21
From the text: Recent studies highlighted a key role for T lymphocytes in bleomycin-induced fibrosis (Wilson, M. et al., The Journal of Experimental Medicine, 207(3): 535-552, 2010). […] Specifically, the ability of C57BL/6 purified antigen-presenting cells to induce proliferation in C57BL/6 T lymphocytes was examined in the assay.
C57-BL/6 mice were subjected to bleomycin injury at day 0. […] Splenic T cells were isolated and cultured alone or in the presence of autologous antigen presenting cells (APCs from C57-BL/6 mice) or stimulated with antibodies against CD3 (α-CD3) for 48 h. The cells then were radiolabeled with […] thymidine for 16 h and assessed for proliferation rates.

[5] = nebulization or intraperitoneal, daily day 7 to 21, lung at day 21

Chain of PAK6(h) (Q9NQU5 whole entry): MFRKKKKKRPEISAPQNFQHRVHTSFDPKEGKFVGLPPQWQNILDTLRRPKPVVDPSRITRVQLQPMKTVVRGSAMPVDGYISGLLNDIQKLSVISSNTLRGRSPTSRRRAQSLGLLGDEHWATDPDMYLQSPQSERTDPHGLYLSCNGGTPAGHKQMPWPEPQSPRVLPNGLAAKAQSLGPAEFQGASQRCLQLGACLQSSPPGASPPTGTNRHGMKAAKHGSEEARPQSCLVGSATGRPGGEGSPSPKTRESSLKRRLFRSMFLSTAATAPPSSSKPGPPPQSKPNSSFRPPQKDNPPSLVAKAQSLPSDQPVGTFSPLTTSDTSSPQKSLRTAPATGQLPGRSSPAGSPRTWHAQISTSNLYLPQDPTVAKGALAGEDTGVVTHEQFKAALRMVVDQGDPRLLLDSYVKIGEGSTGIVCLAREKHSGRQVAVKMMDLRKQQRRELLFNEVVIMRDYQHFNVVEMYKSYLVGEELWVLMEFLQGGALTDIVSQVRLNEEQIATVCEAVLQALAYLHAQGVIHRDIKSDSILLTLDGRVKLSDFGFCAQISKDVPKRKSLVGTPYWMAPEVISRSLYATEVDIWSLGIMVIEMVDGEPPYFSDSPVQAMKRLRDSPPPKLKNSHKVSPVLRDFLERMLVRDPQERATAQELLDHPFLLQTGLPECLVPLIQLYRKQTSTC
Chain of CLK2(h) (P49760 whole entry): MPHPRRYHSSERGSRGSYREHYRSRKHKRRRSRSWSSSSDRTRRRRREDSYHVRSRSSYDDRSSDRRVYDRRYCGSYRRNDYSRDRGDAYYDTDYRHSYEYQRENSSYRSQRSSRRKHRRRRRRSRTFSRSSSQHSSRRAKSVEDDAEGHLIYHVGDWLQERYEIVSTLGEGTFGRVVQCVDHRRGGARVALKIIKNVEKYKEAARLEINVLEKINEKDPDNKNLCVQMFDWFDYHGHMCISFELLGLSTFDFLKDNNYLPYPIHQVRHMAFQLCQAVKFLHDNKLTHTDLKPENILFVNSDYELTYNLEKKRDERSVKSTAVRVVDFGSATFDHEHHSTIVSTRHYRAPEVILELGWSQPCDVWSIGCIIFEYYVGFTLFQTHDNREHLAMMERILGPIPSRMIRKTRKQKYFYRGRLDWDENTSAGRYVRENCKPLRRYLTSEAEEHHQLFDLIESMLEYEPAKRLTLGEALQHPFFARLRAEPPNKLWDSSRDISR
Chain of CK1γ2(h) (P78368 whole entry): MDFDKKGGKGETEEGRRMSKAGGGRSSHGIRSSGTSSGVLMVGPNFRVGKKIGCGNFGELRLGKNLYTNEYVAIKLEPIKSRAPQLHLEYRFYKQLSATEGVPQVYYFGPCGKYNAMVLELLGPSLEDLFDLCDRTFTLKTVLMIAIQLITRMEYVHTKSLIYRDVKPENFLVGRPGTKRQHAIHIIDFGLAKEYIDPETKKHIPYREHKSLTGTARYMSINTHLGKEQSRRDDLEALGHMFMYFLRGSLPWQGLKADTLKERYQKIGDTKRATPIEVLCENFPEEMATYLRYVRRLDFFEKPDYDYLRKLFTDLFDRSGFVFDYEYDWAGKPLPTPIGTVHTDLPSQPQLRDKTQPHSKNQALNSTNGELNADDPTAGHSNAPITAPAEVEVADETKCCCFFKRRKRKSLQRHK
Chain of CK1γ1(h) (Q9HCP0 whole entry): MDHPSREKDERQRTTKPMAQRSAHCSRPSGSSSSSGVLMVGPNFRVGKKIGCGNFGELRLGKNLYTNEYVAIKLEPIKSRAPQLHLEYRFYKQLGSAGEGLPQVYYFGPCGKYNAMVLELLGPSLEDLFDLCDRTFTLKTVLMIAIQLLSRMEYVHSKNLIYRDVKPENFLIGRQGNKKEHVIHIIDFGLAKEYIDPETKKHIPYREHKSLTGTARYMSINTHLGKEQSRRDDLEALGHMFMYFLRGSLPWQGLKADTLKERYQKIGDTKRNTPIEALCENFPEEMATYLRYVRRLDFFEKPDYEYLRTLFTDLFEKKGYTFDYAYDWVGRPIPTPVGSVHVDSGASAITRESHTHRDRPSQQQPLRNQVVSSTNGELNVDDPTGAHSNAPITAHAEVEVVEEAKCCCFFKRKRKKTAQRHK
T1 sequence (P53350 whole entry): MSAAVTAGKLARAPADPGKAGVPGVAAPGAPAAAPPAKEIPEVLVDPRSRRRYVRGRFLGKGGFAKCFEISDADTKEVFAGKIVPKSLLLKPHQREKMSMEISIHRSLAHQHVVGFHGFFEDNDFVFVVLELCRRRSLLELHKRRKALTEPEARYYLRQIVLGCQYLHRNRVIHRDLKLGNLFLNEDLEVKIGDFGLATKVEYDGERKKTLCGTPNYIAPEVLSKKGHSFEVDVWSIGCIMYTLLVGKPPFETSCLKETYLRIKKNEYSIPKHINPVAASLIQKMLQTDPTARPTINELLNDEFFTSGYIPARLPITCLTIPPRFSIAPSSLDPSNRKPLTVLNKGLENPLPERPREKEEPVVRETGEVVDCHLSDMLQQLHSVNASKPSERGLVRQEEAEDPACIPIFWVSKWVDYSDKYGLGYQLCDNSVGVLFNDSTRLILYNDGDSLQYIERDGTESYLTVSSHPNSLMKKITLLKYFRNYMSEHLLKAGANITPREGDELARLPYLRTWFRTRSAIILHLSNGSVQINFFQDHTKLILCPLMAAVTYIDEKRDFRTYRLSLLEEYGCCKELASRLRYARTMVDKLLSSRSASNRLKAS

HRRIKAWLKKIKALARQLGVAA (Mammalian) [MMI-0500]
c-RAF(h) % activity (c-RAF(h)): 19%

KAFAKLAARLYRKALARQLGVAA [MMI-0400]
PAK6(h) % activity (PAK6(h)): 100%

FAKLAARLYRKALARQLGVAA [MMI-0300]
CK1γ2(h) % activity (CK1γ2(h)): 123%

YARAAARQARAKALNRQLGVA (Mammalian) [MMI-0200]
collagen levels in the lung (Masson's blue trichrome), dose response [1]: did not reduce, but rather increased the collagen deposition
CLK2(h) % activity (CLK2(h)): 97%
CK1γ1(h) % activity (CK1γ1(h)): 98%
Plk1(h) % activity (Plk1(h)): 128%
protein level of α-smooth muscle actin (α-SMA) [2]: no changes in the protein level

CC(C)C[C@H](NC(=O)[C@H](C)NC(=O)[C@H](CCCCN)NC(=O)[C@H](C)NC(=O)[C@H](CCCNC(=N)N)NC(=O)[C@H](C)NC(=O)[C@H](CCC(N)=O)NC(=O)[C@H](CCCNC(=N)N)NC(=O)[C@H](C)NC(=O)[C@H](C)NC(=O)[C@H](C)NC(=O)[C@H](CCCNC(=N)N)NC(=O)[C@H](C)NC(=O)[C@@H](N)Cc1ccc(O)cc1)C(=O)N[C@@H](C)C(=O)N[C@@H](CCCNC(=N)N)C(=O)N[C@@H](CCC(N)=O)C(=O)N[C@@H](CC(C)C)C(=O)NCC(=O)N[C@H](C(=O)N[C@@H](C)C(=O)N[C@@H](C)C(=O)O)C(C)C [MMI-0100] (H-YARAAARQARAKALARQLGVAA-OH; N-terminus and C-terminus assumed)
collagen levels in the lung (Masson's blue trichrome), dose response [1]: decrease in collagen levels
collagen accumulation (Masson's Trichrome staining) [1, 5]: reduced collagen accumulation
fibrotic loci formation (H&E staining) [1, 5]: significantly reduced development of fibrotic loci formation
total collagen levels in the lungs (from hydroxyproline) ([1]; nebulized or systemic (IP), post-inflammatory/pre-fibrotic stage, vs bleomycin control): significantly decreased collagen deposition
plasma level of IL-6 (IL-6): significantly reduced
collagen deposition (hydroxyproline assay, whole left lung) ([3]; IP or NEB from day 14, day 28 post bleomycin): significantly arrested further progression of collagen deposition
lung architecture and collagen distribution (H&E, Masson's blue trichrome) ([3]; intraperitoneal or nebulized, daily day 14 to 28): clearer lung parenchyma
ISO-induced relaxation [4]: enhances ISO-induced relaxation
proliferation of T cells in the presence of antigen presenting cells (splenic T cells; 50 μg/kg/day intraperitoneal (systemic)): significantly reduced
proliferation of T cells in the presence of antigen presenting cells (splenic T cells; 50 μg/kg/day nebulizer (inhaled)): not by the inhaled mode
toxicity (proliferative response of splenic T cells to α-CD3) (splenic T cells; 50 μg/kg/day): no toxicity
protein level of α-smooth muscle actin (α-SMA) [2]: decreases in the levels
